The record followed here is BindingDB's records for doi:10.1021/jm00402a012 (Harvard Medical School, 1988).

The nature of this assay: Inhibition of Folyl-polyglutamate synthase from mouse liver.

What is called Ki is the equilibrium dissociation constant of an inhibitor or competing ligand from its target. Higher therefore signals weaker binding.

`Nc1nc(N)c2nc(CNc3ccc(C(=O)NC(CCS(=O)(=O)O)C(=O)O)cc3)cnc2n1` (stereo not drawn) [2-{4-[(2,4-Diamino-pteridin-6-ylmethyl)-amino]-benzoylamino}-4-sulfo-butyric acid]: the Ki was 45 µM.

With `CN(Cc1cnc2nc(N)nc(N)c2n1)c1ccc(C(=O)NC(CCS(=O)(=O)O)C(=O)O)cc1` (stereo not drawn) [2-{4-[(2,4-Diamino-pteridin-6-ylmethyl)-methyl-amino]-benzoylamino}-4-sulfo-butyric acid], the Ki turned out to be 188 µM.

Consider `CN(Cc1cnc2nc(N)nc(N)c2n1)c1ccc(C(=O)NC(CCP(=O)(O)O)C(=O)O)cc1` (stereo not drawn) [2-{4-[(2,4-Diamino-pteridin-6-ylmethyl)-methyl-amino]-benzoylamino}-4-phosphono-butyric acid], for which the Ki came to 185 µM.
